Assay results reported in patent US20220193270A1, “METHOD FOR ENHANCING TUMOR GROWTH” (MINERVA BIOTECHNOLOGIES CORPORATION, priority 2013, published 2022).

Assays:
[1] = system: human fibroblasts; experiment: RT-PCR of stem/cancer markers and chromatin rearrangement factors in fibroblasts cultured with NME proteins; type: cell-based; details: after 15-20 days in culture
Procedure: Agents that are able to maintain stem cells in the naive state are also able to transform somatic cells to a cancer or stem-like state. Human NME1 dimer or human NME7 are able to make somatic cells revert to a less mature state, expressing stem and cancer cell markers. Bacterial NME from HSP 593 was tested alongside the human homologs to determine if it could mimic their function by being able to revert somatic cells to a cancer-like state. Human fibroblasts were cultured in a serum-free minimal base media with either HSP 593, human NME1 dimers or human NME7-AB as the only growth factor or cytokine. […] Recalling that stem cells and metastatic cancer cells can grow anchorage-independently, we repeated the experiments but this time a rho kinase inhibitor was added to one set of cells to make the cells adhere to the surface. […] Photos of the experiment show the dramatic change in morphology as the fibroblasts revert when cultured in human or bacterial NME, FIGS. 52-59. The relative order of efficiency of reverting somatic cells to a less mature state was NME7>NME1 dimers >NME1 bacterial. […] However, Bacterial NME from HSP 593 apparently up-regulates expression of human NME7 and NME1.
Example 3d: In this example, fibroblast cells were cultured in the presence of recombinant human NME1/NM23 dimers, bacterial HSP593 NME1 dimers or NME7-AB. The fibroblasts were cultured in their normal media as a control, which is for 500 mL, 445 mL DMEM high glucose base media, 5 mL GlutaMAX and 50 mL of fetal bovine serum (FBS). After 15-20 days in culture with either NME1/NM23 dimers, bacterial HSP593 NME1 dimers or NME7-AB, the morphology of the cells completely changed so that they no longer were recognizable as fibroblasts. […] Here, ‘minus ROCi’ refers to cells that became non-adherent and floated off the surface.

[2] = system: PC3 MUC1-negative prostate cancer cells; experiment: RT-PCR of stem cell markers in PC3 cells cultured with agent; type: cell-based, human
Procedure: (§1) Example 3: Agents that are able to maintain stem cells in the naïve state transform cancer cells into cancer stem cells wherein only a small number of cells are required for engraftment. Cancer cells were cultured according to standard practice. In the controls, the cancer cells were cultured in their normal media: RPMI for T47D breast cancer cells, DU145 and PC3 prostate cancer cells. However, the test agents, recombinant proteins human NME1 dimers, bacterial HSP593 NME1 dimers, human NME7-AB and 2i, were added to a serum-free minimal media to eliminate potential interference from the many growth factors and cytokines in serum.
(§2) To this serum-free minimal media, rhNME1 (aka NM23) was added to a final concentration of 8 nM, or bacterial HSP593 recombinant NME1 was added to a final concentration of 8 nM, or rhNME7-AB was added to a final concentration of 4 nM, or 2i inhibitors, PD0325901 and CHIR99021, which inhibit the MAP kinase pathway and GSK3, respectively, were added to a final concentration of 3 μM and 1 μM.
PC3 MUCl-negative prostate cancer cells were also tested for their ability to transform into cancer stem cells when cultured in agents that are able to maintain stem cells in the naïve state. PC3 cells were cultured as described above with either human NME1 dimers, bacterial NME1 dimers or NME7-AB. […] Thus, the RT-PCR measurements of the cancer stem cell markers may be lower because measurements will be the average of transformed cells and non-transformed cells.

[3] = system: MUC1-positive T47D breast cancer cells; experiment: RT-PCR of cancer stem cell markers and chromatin rearrangement factors in T47D cells cultured in serum-free minimal media with agent; type: cell-based, human
Procedure: as §1
Serum-free Minimal Media 500 mL includes the following components: 394 mL DMEM/F12, GlutaMAX; 100 mL Knockout™ Serum Replacement; 5.0 mL 100×MEM Non-essential Amino Acid Solution; 0.9 mL P-mercaptoethanol, 55 mM stock.
as §2
When a rho kinase inhibitor, “Ri” or “ROCi”, was added it was Y27632 from Stemgent (Cambridge, Mass.), added immediately before use to a final concentration of 10 uM.
Example 3a: Breast cancer T47D cells were cultured either in the traditional RPMI growth media or in a minimal stem cell media to which was added either human NME1 dimers, also known as NM23-H1, bacterial HSP593 NME1 dimers, human NME7-AB, or kinase inhibitors known as ‘2i’. What these agents have in common is that they are each able to promote the growth of stem cells in the naive state or are able to revert primed state stem cells to the less mature naive state. We observed that some of the T47D cancer cells cultured in any of these agents became non-adherent. These ‘floaters’ were also morphologically different. The addition of a rho kinase inhibitor, called ‘Ri’ or ‘ROCP here caused most of the cells to remain attached to the surface. […] When a rho kinase inhibitor is added, all the cells remain attached but the RT-PCR measurements indicate that the resultant measure is of a mixture of the cells that were transformed and those that were not or were not yet.
Example 3c: In this example, the effect of ‘2i’ inhibitors on cancer cells was tested. Recall that 2i is the name given to 2 small molecules, […] that inhibit the MAP kinase pathway and GSK3 respectively. […] In this experiment, we cultured MUCl-positive T47D breast cancer cells in minimal media to which was added either 2i or NME7-AB.

[4] = system: Human HES-3 embryonic stem cells; experiment: Human embryonic stem cell culture with NME protein as only growth factor; type: cell-based; details: serum-free minimal base media, agent as the only growth factor or cytokine
Text: Factors that are able to maintain stem cells in the naive state are also able to transform cells to a cancer-like or stem-like state and are also able to transform cancer cells to a cancer stem cell state or a more metastatic state. Herein, we have shown several examples of bacterial NME1 being able to function like human NME1 dimers, which are also able to function like NME7 or NME7-AB. However, the primary example that these factors function in a very similar way is their ability to promote the growth of stem cells, inhibit differentiation and maintain them in the naive state. […] Human HES-3 embryonic stem cells were cultured in a serum-free minimal base media with either HSP 593, human NME1 or NME7-dimers or human NME7-AB as the only growth factor or cytokine. […] Several examples have been presented here that indicate that contacting cells with an agent or agents that are able to revert stem cells from the primed state to the less mature naive state are also able to revert a wide variety of cell types to a less mature state: somatic cells to stem or progenitor cells or cancer cells to more metastatic state also called cancer stem cell state. Therefore, the invention is not meant to be limited to a specific cell type or a specific cancer cell type.

[5] = system: DU145 MUC1-positive prostate cancer cells; experiment: RT-PCR of cancer stem cell markers in DU145 cells cultured with agent; type: cell-based, human; details: after 9-10 passages; FIG. 11b
Procedure: as §1, §2
Example 3b: Prostate cancer cells were also cultured as described above with either human NME1 dimers, bacterial NME1 dimers, NME7-AB, or 2i inhibitors. […] Thus, the RT-PCR measurements of the cancer stem cell markers are lower than that of the T47D cells, which could be explained by it being the measure of transformed cells and non-transformed cells. In the case of breast cancer cells, we were able to isolate the fully transformed cancer stem cells by collecting the floating cells, but were not able to do so here. DU145 MUC1-positive prostate cancer cells were cultured in RPMI media as a control and in minimal media to which was added recombinant human NME1/NM23 dimers, bacterial HSP593 dimers, or human NME7-AB. […] There was about a 2-8-fold increase in OCT4, MUC1 and CDH1/E-cadherin. However, after serial passaging under these same culture conditions, the increases in expression of cancer stem cell markers became more pronounced. We reasoned that serial passaging allowed more time for cells to transform since we could not rapidly collect floating cells.

With “NME1 dimers: recombinant human NM23, also called NME1, dimers that bear the 5120G mutation that stabilizes dimers” the “expression of stem cell marker genes OCT4 and NANOG” value ([1]; FIG. 15) was “greatly increased expression”, the “expression of BRD4, JMJD6, MBD3 and CHD4” value ([1]; FIG. 16) was “decreased expression” and the “expression of stem cell markers SOX2, OCT4 and NANOG” value ([2]; after passage in agent, FIG. 12a) was “modest increases”. For the same substance, the “expression of cancer stem cell or stem cell markers” value ([2]; serial passaging in the media, FIG. 12b) was “decreased”, the “expression of CDH1 (E-cadherin), MUC1 and NANOG” value ([3]; FIG. 7) was “increases” and the “expression of CXCR4, SOX2 and OCT4” value ([3]; FIG. 7) was “dramatic increases”. For the same substance, the “expression of stem cell markers KLF2 and KLF4” value ([3]; FIG. 7) was “modest increases”, the “expression of MBD3, CHD4, BRD4 and JMJD6” value ([3]; cancer cells cultured in agent, FIG. 13, FIG. 14) was “naturally suppressed” and the “support of human stem cell growth” value [4] was “fully supported human stem cell growth”. For the same substance, the “expression of NANOG and OCT4” value [5] was “significant increases” and the “increase in the expression of CDH1/E-cadherin” value [5] was 6 fold.
